Here are results for two compounds from PMC12579162, “Synthesized Depside Molecules Suppress the Progression of Colorectal Cancer by Binding VDAC1/PHB/MMP9 Being at the Crossroads of Stemness, Motility, Apoptosis, and Metabolism” (MedComm, 2025).

Holding throughout (format): cell-based
The test system of one test is spheroid formation. Put plainly: Spheroid formation, comparison with known MMP inhibitor (Figure S10). The conditions noted are these: 10 µM, 10–14 days. As for the experimental part:
Monolayer cells were separated into single‐cell suspensions at around 70% confluence using a solution of trypsin. After that, the cells were added to N2‐supplemented DMEM/F12 that contained human basal fibroblast growth factor and human recombinant epidermal growth factor. Cells seeded at a density of 5 × 10^3 cells/well in ultra‐low attachment 24‐well plates (Corning Inc., Corning, NY, USA). After 10–14 days of culture, spheres were quantitated by inverted phase contrast microscopy. The relative sphere formation ability was calculated through the IMT iSolution software (IMT iSolution Inc., Northampton, NJ, USA) measuring the pixel intensity of the sphere area randomly in each plate.
Supplementary Figure S10. Comparison of the effects of novel VDAC1/PHB/MMP9 binding compounds and known MMP inhibitor on spheroid formation. Cells were exposed to the compound at 5 μM concentration of SB4 or SB5 and 10 μM of MMP inhibitor (GM 6001, ilomastat) for 10-14 days. The histogram represents spheroid formation, calculated as rate relative to vehicle-treated control, and represented as bar graphs. *p < 0.05; **p < 0.01; ***p < 0.001; NS, no significant difference between compared groups.

A further test deals with CSC221 cells. The test can be described thus: MTT cell viability, CSC221. The conditions noted are these: Homo sapiens; 48 h, MTT assay. As for the experimental part:
(§1) Cells (3 × 10^3 cells/well) were seeded on a 96‐well plate, grown overnight, and then treated with compounds at indicated concentrations for 48 h. After incubation with MTT for 4 h at 37°C, cells were lysed with 150 µL of DMSO (Sigma–Aldrich, St. Louis, USA). Absorbance was measured at 570 nm on a microplate reader with the Gen5 software (v.2.03.1; BioTek, Winooski, VT, USA).
(In general: Tetrazolium assays rely on reduction of a dye to a coloured formazan, in cell work by metabolically active cells.)

The subject of a further test is HaCaT cells. The test can be described thus: MTT cell viability, HaCaT. The conditions noted are these: Homo sapiens, 48 h, MTT assay. As for the experimental part: as §1
The next test has as its system CT26 cells. The test can be described thus: MTT cell viability, CT26. To be noted: Mus musculus, 48 h, MTT assay. As for the experimental part: as §1
In a further test the test system is CaCo2 cells. The test can be described thus: MTT cell viability, CaCo2. The conditions noted are these: Homo sapiens, Caco-2; 48 h, MTT assay. As to the method:
as §1

The next test has as its system BEAS-2B cells. The test can be described thus: MTT cell viability, BEAS-2B. The conditions noted are these: Homo sapiens, 48 h, MTT assay. As to the method: as §1
The next test deals with SW620 cells. Put plainly: MTT cell viability, SW620. The conditions noted are these: Homo sapiens, SW-620; 48 h, MTT assay. As to the method:
as §1

The subject of another test is DLD1 cells. Put plainly: MTT cell viability, DLD1. The conditions noted are these: Homo sapiens, DLD-1; 48 h, MTT assay. As for the experimental part:
as §1

Another test concerns HCT116 cells. Put plainly: MTT cell viability, HCT116. To be noted: Homo sapiens, HCT-116; 48 h, MTT assay. As for the experimental part: as §1
The subject of the next test is HEK293T cells. The test can be described thus: MTT cell viability, HEK293T. The conditions noted are these: Homo sapiens, HEK-293T; 48 h, MTT assay. As to the method: as §1
For the next test, the system named is MCF10A cells. Put plainly: MTT cell viability, MCF10A. The conditions noted are these: Homo sapiens, MCF-10A; 48 h, MTT assay. As to the method: as §1
The subject of another test is HT29 cells. The test can be described thus: MTT cell viability, HT29. To be noted: Homo sapiens, HT-29; 48 h, MTT assay. As for the experimental part:
as §1

Consider `CNC(=O)[C@H](Cc1c[nH]c2ccccc12)NC(=O)[C@@H](CC(=O)NO)CC(C)C` [GM 6001, ilomastat], for which the spheroid formation entry with spheroid formation is listed as “no effect on inhibition of spheroid formation”.
Regarding `COc1cc(C)c(C(=O)Oc2cc(C)c(C(=O)O)c(O)c2C)c(OC)c1C` [DA, diffractaic acid, reference compound], the IC50 – broadly, the concentration that gives 50% inhibition – in the test on CSC221 cells amounted to 133 µM; in the test on HaCaT cells it was 84.2 µM; in the test on CT26 cells it was 46.2 µM; in the test with CaCo2 cells it was 90.5 µM; in the test on BEAS-2B cells, 54.3 µM; with SW620 cells it was 46.2 µM. The IC50 with DLD1 cells came to 64.1 µM; with HCT116 cells, 49.1 µM; in the test with HEK293T cells, 121 µM; in the test with MCF10A cells, 146 µM; in the test on HT29 cells it was 62.8 µM.
